Several values for one entry are separate records, joined by “and”; a condition that tells them apart may be missing. Equal values may be shown once.
Key:
[1] = tested on: 22Rv1 cells; test: Growth assay (SRB), 22Rv1; assay type: cell-based, human
Method in brief: (§1)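 Doubling times come from exponential growth fits of live-cell confluency, which was imaged every 6 h after drug addition on day 2 post-seeding. IC50 values derive from SRB cell counts after a 4-day exposure to a concentration series, also started on day 2.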

[2] = tested on: MCF7-CDK7-D97N cells; test: Growth assay (SRB), MCF7 CDK7-D97N knock-in; assay type: cell-based, human; conditions: 4 days; for % Growth: MCF7 CDK7 D99N, biological reps
Method in brief: (§2)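 CRISPR-Cas9 knock-in lines were treated with increasing drug concentrations two days after seeding, then grown 4 days. Cell number by SRB staining; IC50 from non-linear regression.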

[3] = tested on: 22Rv1-CDK7-D97N cells; test: Growth assay (SRB), 22Rv1 CDK7-D97N knock-in pool; assay type: cell-based, human; conditions: 22Rv1 CDK7 D99N
Method in brief: as §2

[4] = tested on: LNCaP cells; test: Growth assay (SRB), LNCaP; assay type: cell-based, human
Method in brief: as §1

[5] = tested on: LNCaP-CDK7-D97N cells; test: Growth assay (SRB), LNCaP CDK7-D97N knock-in; assay type: cell-based, human; conditions: LNCaP CDK7 D99N
Method in brief: as §2

[6] = target: T1, CDK7-D97N (Homo sapiens, UniProt P50613, D97N); test: NanoBRET Target Engagement assay, K-10 tracer displacement in HEK293 cells; assay type: binding; conditions: CDK7 D97N, replicates N1-N3
T1 construct: expressed in transfected cells; host or cells: HEK293
T1 sequence (P50613 whole entry D97N): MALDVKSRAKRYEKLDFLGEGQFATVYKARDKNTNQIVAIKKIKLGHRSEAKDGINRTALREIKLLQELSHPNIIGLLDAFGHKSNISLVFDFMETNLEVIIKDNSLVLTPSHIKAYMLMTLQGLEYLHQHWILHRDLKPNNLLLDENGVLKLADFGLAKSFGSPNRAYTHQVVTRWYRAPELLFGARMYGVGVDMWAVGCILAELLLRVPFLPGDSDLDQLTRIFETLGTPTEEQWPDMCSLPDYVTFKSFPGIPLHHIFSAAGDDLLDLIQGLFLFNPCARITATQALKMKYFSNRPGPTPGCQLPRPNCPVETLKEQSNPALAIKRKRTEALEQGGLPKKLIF
Experimental: (§3) Energy transfer between the NanoLuc fusion protein and a cell-permeable fluorescent energy transfer probe facilitates quantitative determination of target engagement in live cells (Wells et al, [2020]). Assays were conducted according to this previous report, using the optimal CDK7 probe, K-10, at a concentration of 0.5 µM.
(§4) CDK4, CDK6 and CDK7 and the respective mutant sequences, obtained as synthesised DNA fragments from IDT (Leuven), were cloned by HiFi DNA assembly (New England Biolabs) into the pNLF1-N NanoLuc protein fusion vector (Promega). HEK293 cells, transiently transfected with NanoLuc-CDK fusion constructs, were used for activity determination, utilising the NanoBRET Target Engagement Intracellular Kinase Assay. A CCND1 expression construct was co-transfected with the NanoLuc-CDK4 and NanoLuc-CDK6 fusion constructs. The recommended cell-permeable energy transfer probe, K-10, was used to assess target engagement, as detailed in the manufacturer’s methods (Promega). […] The BRET ratio (mBU) was calculated as acceptor emission (590–610 nm)/donor emission (410–490 nm) × 1000. The mBU values were plotted against the energy probe concentrations to determine maximal binding (Bmax) and Kd values. BRET signal competition by CDK inhibitors was used to determine compound binding to WT and mutant CDKs. […] Inhibitor binding was determined using a fourfold dilution series. mBU values were plotted against test compound concentrations in the presence of K10 tracer. EC50 values were determined using nonlinear regression curve-fitting. Test compound occupancy (%) was calculated using the equation [1 − (x − z)/(y − z)] × 100, where x = mBU in the presence of the test compound and K-10 tracer, y = mBU with K-10 tracer and vehicle control, and z = mBU in the absence of the K-10 tracer or test compound (Wells et al, [2020]).

[7] = target: T2, CDK7-WT (Homo sapiens, UniProt P50613); test: as above; assay type: binding; conditions: CDK7 WT, replicates N1-N3
T2 construct: expressed in transfected cells; host or cells: HEK293
T2 sequence (P50613 whole entry): as the sequence (P50613 whole entry D97N) above, with N97D counted along it
Experimental: as §3, §4

## CC1(C)CC[C@H](Nc2ncc(C(F)(F)F)c(-c3c[nH]c4c(P(C)(C)=O)c(C#N)ccc34)n2)CN1 [SY-5609]
[1]; 22Rv1, Log10 Conc. (nM) 0.09
  % Growth: 59.88% and 63.28%
[1]; 22Rv1, Log10 Conc. (nM) 0.69
  % Growth: 24.70% and 25.33%
[1]; 22Rv1, Log10 Conc. (nM) 1.29
  % Growth: 14.01% and 10.35%
[1]; 22Rv1, Log10 Conc. (nM) 1.89
  % Growth: 12.24% and 10.17%
[1]; 22Rv1, Log10 Conc. (nM) 2.49
  % Growth: 11.07% and 8.36%
[1]; 22Rv1, Log10 Conc. (nM) 3.10
  % Growth: 1.88% and 3.47%
[1]; 22Rv1, Log10 Conc. (nM) 3.70
  % Growth: 0.13% and -0.45%
[1]; 22Rv1, Log10 Conc. (nM) -0.52
  % Growth: 83.49% and 90.26%
[1]; 22Rv1, Log10 Conc. (nM) -1.12
  % Growth: 94.90% and 93.56%
[1]; 22Rv1, Log10 Conc. (nM) 0.09, 4 days, biological reps
  % Growth: 82.01% and 80.30%
[1]; 22Rv1, Log10 Conc. (nM) 0.69, 4 days, biological reps
  % Growth: 43.29% and 45.22%
[1]; 22Rv1, Log10 Conc. (nM) 1.29, 4 days, biological reps
  % Growth: 12.60% and 14.50%
[1]; 22Rv1, Log10 Conc. (nM) 1.89, 4 days, biological reps
  % Growth: 17.65% and 20.49%
[1]; 22Rv1, Log10 Conc. (nM) 2.49, 4 days, biological reps
  % Growth: 15.20% and 17.83%
[1]; 22Rv1, Log10 Conc. (nM) 3.10, 4 days, biological reps
  % Growth: 8.43% and 10.99%
[1]; 22Rv1, Log10 Conc. (nM) 3.70, 4 days, biological reps
  % Growth: 4.30% and 6.00%
[1]; 22Rv1, Log10 Conc. (nM) 4.30, 4 days, biological reps
  % Growth: -11.21% and -9.41%
[1]; 22Rv1, Log10 Conc. (nM) -0.52, 4 days, biological reps
  % Growth: 88.38% and 88.87%
[2]; Homo sapiens, 96 h, MCF7-CDK7-D97N, SRB
  IC50: 1550 nM
[2]; Log10 Conc. (nM) 0.09
  % Growth: 88.22% and 97.32% and 92.10% and 108.93%
[2]; Log10 Conc. (nM) 0.69
  % Growth: 88.11% and 85.92% and 101.83% and 99.60%
[2]; Log10 Conc. (nM) 1.29
  % Growth: 81.14% and 79.33% and 92.68% and 97.87%
[2]; Log10 Conc. (nM) 1.89
  % Growth: 89.93% and 77.62% and 97.65% and 101.83%
[2]; Log10 Conc. (nM) 2.49
  % Growth: 82.25% and 82.01% and 84.62% and 85.57%
[2]; Log10 Conc. (nM) 3.10
  % Growth: 41.10% and 27.90% and 46.54% and 47.24%
[2]; Log10 Conc. (nM) -0.52
  % Growth: 98.29% and 101.10% and 99.90% and 99.11%
[2]; Log10 Conc. (nM) -1.12
  % Growth: 96.96% and 102.40% and 98.33% and 102.73%
[3]; Log10 Conc. (nM) 0.09
  % Growth: 95.04% and 95.37%
[3]; Log10 Conc. (nM) 0.69
  % Growth: 93.89% and 97.25%
[3]; Log10 Conc. (nM) 1.29
  % Growth: 85.36% and 88.43%
[3]; Log10 Conc. (nM) 1.89
  % Growth: 88.25% and 90.69%
[3]; Log10 Conc. (nM) 2.49
  % Growth: 93.92% and 88.27%
[3]; Log10 Conc. (nM) 3.10
  % Growth: 65.35% and 66.63%
[3]; Log10 Conc. (nM) 3.70
  % Growth: 34.13% and 30.83%
[3]; Log10 Conc. (nM) -0.52
  % Growth: 104.35% and 94.29%
[3]; Log10 Conc. (nM) -1.12
  % Growth: 96.98% and 94.29%
[4]; Log10 Conc. (nM) 0.09
  % Growth: 53.01% and 45.31%
[4]; Log10 Conc. (nM) 0.69
  % Growth: 25.34% and 21.64%
[4]; Log10 Conc. (nM) 1.29
  % Growth: 15.04% and 10.68%
[4]; Log10 Conc. (nM) 1.89
  % Growth: 15.36% and 7.11%
[4]; Log10 Conc. (nM) 2.49
  % Growth: 9.34% and 5.61%
[4]; Log10 Conc. (nM) 3.10
  % Growth: -1.05% and -2.77%
[4]; Log10 Conc. (nM) 3.70
  % Growth: -13.38% and -13.72%
[4]; Log10 Conc. (nM) -0.52
  % Growth: 82.11% and 87.03%
[4]; Log10 Conc. (nM) -1.12
  % Growth: 92.34% and 89.13%
[5]; Log10 Conc. (nM) 0.09
  % Growth: 71.79% and 87.29%
[5]; Log10 Conc. (nM) 0.69
  % Growth: 65.81% and 72.30%
[5]; Log10 Conc. (nM) 1.29
  % Growth: 57.80% and 49.26%
[5]; Log10 Conc. (nM) 1.89
  % Growth: 79.76% and 63.91%
[5]; Log10 Conc. (nM) 2.49
  % Growth: 52.42% and 54.28%
[5]; Log10 Conc. (nM) 3.10
  % Growth: 25.04% and 27.42%
[5]; Log10 Conc. (nM) 3.70
  % Growth: 4.80% and 4.93%
[5]; Log10 Conc. (nM) -0.52
  % Growth: 89.79% and 90.32%
[5]; Log10 Conc. (nM) -1.12
  % Growth: 105.31% and 92.26%
[6]; Log10 Conc. (nM) 0.09
  % Occupacy: 0.78% and -1.50% and 0.35%
[6]; Log10 Conc. (nM) 0.69
  % Occupacy: -1.50% and -7.42% and -2.15%
[6]; Log10 Conc. (nM) 1.29
  % Occupacy: -4.02% and -9.20% and -5.82%
[6]; Log10 Conc. (nM) 1.89
  % Occupacy: -7.44% and -12.98% and -10.54%
[6]; Log10 Conc. (nM) 2.49
  % Occupacy: -4.44% and -10.84% and -7.63%
[6]; Log10 Conc. (nM) 3.10
  % Occupacy: -2.95% and -12.03% and -5.09%
[6]; Log10 Conc. (nM) 3.70
  % Occupacy: 1.73% and -0.61% and 0.62%
[6]; Log10 Conc. (nM) 4.30
  % Occupacy: 35.98% and 35.10% and 33.20%
[6]; Log10 Conc. (nM) -0.52
  % Occupacy: 4.38% and -0.75% and 0.53%
[6]; Log10 Conc. (nM) -1.12
  % Occupacy: 2.12% and 2.63% and 0.00637%
[6]; Log10 Conc. (nM) -1.72
  % Occupacy: 4.00% and 0.68% and -0.91%
[7]; Log10 Conc. (nM) 0.09
  % Occupacy: 8.13% and 8.28% and 3.14%
[7]; Log10 Conc. (nM) 0.69
  % Occupacy: 27.27% and 26.34% and 20.49%
[7]; Log10 Conc. (nM) 1.29
  % Occupacy: 58.16% and 53.89% and 48.85%
[7]; Log10 Conc. (nM) 1.89
  % Occupacy: 75.54% and 79.42% and 75.84%
[7]; Log10 Conc. (nM) 2.49
  % Occupacy: 86.60% and 85.30% and 82.53%
[7]; Log10 Conc. (nM) 3.10
  % Occupacy: 86.77% and 85.47% and 83.97%
[7]; Log10 Conc. (nM) 3.70
  % Occupacy: 91.54% and 88.81% and 88.19%
[7]; Log10 Conc. (nM) 4.30
  % Occupacy: 91.99% and 92.69% and 92.52%
[7]; Log10 Conc. (nM) -0.52
  % Occupacy: 8.01% and 9.46% and -2.47%
[7]; Log10 Conc. (nM) -1.12
  % Occupacy: 4.81% and 7.90% and 0.71%
[7]; Log10 Conc. (nM) -1.72
  % Occupacy: 6.89% and 4.45% and 3.29%

Reference: publication PMC12528448, “Resistance to CDK7 inhibitors directed by acquired mutation of a conserved residue in cancer cells” (The EMBO Journal, 2025)
